Experimental data: ChEMBL document CHEMBL5291721, “A preclinical secondary pharmacology resource illuminates target-adverse drug reaction associations of marketed drugs” (Nat Commun, 2023)

What was measured:
[1] = molecular target: T1, Alpha-1A adrenergic receptor (Homo sapiens, UniProt P35348); assay type: functional, cell-based
T1 sequence (P35348 whole entry): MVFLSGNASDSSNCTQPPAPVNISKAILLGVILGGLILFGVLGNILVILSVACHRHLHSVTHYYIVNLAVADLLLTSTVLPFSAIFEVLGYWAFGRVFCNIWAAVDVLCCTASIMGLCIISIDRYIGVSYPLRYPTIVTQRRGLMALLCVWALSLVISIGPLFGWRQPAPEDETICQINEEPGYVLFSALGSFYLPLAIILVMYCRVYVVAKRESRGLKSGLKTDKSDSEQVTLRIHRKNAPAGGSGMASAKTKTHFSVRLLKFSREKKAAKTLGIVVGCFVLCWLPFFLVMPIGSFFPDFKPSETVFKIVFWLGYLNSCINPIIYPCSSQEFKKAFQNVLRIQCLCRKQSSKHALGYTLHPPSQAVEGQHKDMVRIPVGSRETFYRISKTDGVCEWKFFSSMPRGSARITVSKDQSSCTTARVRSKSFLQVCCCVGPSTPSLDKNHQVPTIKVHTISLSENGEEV

Adenosine receptor A3 = molecular target: T2, Adenosine receptor A3 (Homo sapiens, UniProt P0DMS8)
T2 sequence (P0DMS8 whole entry): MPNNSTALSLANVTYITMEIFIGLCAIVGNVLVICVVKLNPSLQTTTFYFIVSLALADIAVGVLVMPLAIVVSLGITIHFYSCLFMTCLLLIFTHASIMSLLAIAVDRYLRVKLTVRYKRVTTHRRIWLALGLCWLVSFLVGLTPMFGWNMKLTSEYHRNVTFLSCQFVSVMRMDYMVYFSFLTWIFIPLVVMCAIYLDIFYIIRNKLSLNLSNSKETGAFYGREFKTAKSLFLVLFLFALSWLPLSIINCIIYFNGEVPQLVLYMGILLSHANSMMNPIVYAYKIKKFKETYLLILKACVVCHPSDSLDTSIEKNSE

Prothrombin = Prothrombin (Homo sapiens, UniProt P00734); assay type: functional
Acetylcholinesterase = Acetylcholinesterase (Homo sapiens, UniProt P22303); assay type: functional
Chain of Acetylcholinesterase (P22303 whole entry): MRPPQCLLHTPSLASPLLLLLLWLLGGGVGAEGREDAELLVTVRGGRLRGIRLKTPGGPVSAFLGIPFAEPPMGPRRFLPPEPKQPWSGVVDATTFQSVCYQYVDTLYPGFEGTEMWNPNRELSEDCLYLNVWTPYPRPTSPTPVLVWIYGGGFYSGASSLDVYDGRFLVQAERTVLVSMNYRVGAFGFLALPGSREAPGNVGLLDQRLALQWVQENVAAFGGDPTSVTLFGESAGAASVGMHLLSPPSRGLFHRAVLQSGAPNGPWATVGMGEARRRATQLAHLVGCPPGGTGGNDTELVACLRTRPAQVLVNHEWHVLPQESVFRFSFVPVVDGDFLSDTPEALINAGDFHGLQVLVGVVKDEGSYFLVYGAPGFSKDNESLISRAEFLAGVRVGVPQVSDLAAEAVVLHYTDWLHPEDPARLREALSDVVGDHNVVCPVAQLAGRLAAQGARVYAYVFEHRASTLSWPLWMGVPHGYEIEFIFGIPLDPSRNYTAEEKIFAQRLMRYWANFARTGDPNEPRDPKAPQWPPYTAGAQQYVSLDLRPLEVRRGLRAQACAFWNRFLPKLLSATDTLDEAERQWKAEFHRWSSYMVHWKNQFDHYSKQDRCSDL

[2] = molecular target: Sodium-dependent dopamine transporter (Homo sapiens, UniProt Q01959)
[3] = molecular target: T3, Amine oxidase [flavin-containing] A (Homo sapiens, UniProt P21397); assay type: functional
T3 sequence (P21397 whole entry): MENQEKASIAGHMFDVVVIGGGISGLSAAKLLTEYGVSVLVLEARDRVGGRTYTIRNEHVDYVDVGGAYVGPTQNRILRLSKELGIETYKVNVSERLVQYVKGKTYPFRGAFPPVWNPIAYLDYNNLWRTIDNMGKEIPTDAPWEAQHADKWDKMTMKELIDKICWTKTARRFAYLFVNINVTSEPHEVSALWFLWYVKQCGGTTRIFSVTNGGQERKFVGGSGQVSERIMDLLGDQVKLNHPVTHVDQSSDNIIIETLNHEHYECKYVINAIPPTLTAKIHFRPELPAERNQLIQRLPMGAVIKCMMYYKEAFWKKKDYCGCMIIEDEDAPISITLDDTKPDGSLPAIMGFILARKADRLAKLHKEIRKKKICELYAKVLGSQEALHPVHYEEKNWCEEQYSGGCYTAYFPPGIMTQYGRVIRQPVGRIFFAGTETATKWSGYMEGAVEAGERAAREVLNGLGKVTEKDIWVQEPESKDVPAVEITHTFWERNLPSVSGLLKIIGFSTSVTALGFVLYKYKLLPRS

D(3) dopamine receptor = D(3) dopamine receptor (Homo sapiens, UniProt P35462)
Chain of D(3) dopamine receptor (P35462 whole entry): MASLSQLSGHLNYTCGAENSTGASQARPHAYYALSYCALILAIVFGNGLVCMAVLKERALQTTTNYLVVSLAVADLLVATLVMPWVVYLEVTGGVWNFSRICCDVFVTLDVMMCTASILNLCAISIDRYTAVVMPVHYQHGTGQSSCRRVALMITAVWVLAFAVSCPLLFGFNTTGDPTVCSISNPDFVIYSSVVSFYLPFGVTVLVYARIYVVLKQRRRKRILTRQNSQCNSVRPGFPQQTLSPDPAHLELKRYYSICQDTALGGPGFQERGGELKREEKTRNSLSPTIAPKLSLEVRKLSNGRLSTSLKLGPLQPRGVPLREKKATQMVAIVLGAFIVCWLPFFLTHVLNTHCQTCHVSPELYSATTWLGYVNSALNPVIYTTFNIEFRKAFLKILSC

[4] = molecular target: Voltage-gated inwardly rectifying potassium channel KCNH2 (Homo sapiens, UniProt Q12809); assay type: functional; conditions: read-out: AC50
Chain of Voltage-gated inwardly rectifying potassium channel KCNH2 (Q12809 whole entry): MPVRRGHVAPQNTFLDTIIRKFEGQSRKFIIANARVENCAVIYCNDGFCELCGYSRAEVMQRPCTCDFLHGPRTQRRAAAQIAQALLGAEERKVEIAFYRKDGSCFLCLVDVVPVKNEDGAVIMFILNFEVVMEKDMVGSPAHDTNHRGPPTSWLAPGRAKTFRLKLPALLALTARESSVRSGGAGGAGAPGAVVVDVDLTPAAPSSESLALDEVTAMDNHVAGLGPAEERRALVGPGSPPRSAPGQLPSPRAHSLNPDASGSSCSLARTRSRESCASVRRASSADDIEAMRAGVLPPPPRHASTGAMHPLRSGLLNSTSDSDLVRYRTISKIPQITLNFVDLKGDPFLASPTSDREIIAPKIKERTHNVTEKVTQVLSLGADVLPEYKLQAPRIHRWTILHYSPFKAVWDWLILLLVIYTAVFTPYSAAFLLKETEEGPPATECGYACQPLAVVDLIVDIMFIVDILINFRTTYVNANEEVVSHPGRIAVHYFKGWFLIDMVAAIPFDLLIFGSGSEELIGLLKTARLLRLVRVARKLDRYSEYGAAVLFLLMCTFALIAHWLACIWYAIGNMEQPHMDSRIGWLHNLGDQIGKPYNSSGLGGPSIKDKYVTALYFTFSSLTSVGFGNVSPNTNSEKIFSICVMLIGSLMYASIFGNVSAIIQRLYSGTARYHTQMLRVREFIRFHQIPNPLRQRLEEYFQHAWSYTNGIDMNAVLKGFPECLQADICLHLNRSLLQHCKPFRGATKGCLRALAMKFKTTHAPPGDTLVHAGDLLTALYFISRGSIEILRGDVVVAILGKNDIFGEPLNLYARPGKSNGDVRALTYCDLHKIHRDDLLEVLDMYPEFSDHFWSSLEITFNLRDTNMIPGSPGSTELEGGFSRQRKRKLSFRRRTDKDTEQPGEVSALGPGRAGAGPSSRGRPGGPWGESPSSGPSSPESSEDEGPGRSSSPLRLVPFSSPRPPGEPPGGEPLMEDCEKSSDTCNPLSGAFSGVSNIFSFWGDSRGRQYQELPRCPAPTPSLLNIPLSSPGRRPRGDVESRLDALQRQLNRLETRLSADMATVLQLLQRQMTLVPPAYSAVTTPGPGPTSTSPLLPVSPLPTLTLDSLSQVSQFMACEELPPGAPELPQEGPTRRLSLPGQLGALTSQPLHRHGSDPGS

Estrogen receptor = molecular target: T4, Estrogen receptor (Homo sapiens, UniProt P03372)
T4 sequence (P03372 whole entry): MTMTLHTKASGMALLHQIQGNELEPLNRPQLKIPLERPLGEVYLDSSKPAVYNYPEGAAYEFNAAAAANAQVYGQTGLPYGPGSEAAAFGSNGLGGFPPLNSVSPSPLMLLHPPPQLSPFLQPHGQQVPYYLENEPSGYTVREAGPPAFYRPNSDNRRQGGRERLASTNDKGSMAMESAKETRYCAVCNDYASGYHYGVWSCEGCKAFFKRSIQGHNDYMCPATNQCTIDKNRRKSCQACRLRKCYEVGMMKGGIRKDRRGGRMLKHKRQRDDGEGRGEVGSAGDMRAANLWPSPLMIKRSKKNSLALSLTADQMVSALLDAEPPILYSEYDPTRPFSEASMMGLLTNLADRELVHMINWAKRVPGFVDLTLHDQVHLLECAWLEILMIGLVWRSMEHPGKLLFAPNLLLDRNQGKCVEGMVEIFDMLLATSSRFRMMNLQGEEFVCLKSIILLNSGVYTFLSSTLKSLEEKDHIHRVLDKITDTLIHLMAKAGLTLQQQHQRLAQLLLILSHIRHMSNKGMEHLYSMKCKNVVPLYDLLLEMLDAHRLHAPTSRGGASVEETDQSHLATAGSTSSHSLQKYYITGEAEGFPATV

Mu-type opioid receptor = Mu-type opioid receptor (Homo sapiens, UniProt P35372)
Chain of Mu-type opioid receptor (P35372 whole entry): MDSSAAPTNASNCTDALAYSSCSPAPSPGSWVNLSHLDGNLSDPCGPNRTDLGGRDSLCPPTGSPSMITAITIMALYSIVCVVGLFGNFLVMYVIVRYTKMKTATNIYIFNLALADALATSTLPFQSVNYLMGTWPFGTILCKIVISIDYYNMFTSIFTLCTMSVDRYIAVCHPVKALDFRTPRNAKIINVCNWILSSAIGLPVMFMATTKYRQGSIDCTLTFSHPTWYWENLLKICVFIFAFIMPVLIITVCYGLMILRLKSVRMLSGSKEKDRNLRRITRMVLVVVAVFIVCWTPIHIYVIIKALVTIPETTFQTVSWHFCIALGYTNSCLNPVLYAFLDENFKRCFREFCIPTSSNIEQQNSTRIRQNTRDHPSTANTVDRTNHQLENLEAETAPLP

Thromboxane A2 receptor [5] = molecular target: T5, Thromboxane A2 receptor (Homo sapiens, UniProt P21731); assay type: functional, cell-based
T5 sequence (P21731 whole entry): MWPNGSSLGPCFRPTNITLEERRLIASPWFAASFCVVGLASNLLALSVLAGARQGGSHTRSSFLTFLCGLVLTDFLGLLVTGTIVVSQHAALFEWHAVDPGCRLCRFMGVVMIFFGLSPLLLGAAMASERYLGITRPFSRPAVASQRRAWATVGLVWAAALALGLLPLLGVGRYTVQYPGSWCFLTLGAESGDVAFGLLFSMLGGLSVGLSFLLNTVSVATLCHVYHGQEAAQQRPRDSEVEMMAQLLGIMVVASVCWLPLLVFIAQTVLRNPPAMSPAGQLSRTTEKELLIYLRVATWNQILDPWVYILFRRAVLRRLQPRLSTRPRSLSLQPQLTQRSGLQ

[6] = molecular target: 5-hydroxytryptamine receptor 2B (Homo sapiens, UniProt P41595); assay type: functional, cell-based
Chain of 5-hydroxytryptamine receptor 2B (P41595 whole entry): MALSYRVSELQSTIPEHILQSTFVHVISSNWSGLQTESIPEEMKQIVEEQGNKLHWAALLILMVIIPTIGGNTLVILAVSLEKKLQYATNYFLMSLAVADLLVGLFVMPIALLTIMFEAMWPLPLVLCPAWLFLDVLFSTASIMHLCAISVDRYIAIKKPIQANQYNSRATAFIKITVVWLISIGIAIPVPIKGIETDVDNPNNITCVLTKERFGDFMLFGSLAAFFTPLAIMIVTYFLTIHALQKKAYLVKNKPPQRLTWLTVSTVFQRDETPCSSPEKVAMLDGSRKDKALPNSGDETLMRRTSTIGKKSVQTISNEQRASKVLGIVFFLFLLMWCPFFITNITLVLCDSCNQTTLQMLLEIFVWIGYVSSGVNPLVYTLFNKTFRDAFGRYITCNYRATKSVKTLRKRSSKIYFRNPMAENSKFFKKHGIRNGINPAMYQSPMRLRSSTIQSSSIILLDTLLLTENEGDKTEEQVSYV

[7] = molecular target: T6, Prostaglandin G/H synthase 1 (Homo sapiens, UniProt P23219); assay type: functional
T6 sequence (P23219 whole entry): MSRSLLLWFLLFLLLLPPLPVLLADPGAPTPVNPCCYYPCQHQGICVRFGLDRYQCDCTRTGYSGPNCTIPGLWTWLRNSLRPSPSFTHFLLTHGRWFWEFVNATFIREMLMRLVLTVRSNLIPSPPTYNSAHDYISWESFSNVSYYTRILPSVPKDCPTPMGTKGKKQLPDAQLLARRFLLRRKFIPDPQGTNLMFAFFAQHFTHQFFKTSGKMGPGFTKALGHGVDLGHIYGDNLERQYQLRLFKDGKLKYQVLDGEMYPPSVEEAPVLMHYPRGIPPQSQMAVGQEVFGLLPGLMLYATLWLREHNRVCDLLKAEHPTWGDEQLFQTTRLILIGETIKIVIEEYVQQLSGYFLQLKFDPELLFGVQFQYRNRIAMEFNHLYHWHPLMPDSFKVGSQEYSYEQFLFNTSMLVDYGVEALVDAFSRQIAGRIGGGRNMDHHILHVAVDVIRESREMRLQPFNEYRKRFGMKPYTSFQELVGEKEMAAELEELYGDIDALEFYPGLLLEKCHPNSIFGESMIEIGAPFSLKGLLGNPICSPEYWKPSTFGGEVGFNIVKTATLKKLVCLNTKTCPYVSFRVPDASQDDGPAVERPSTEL

Thromboxane A2 receptor [8] = molecular target: T5, Thromboxane A2 receptor; assay type: functional, cell-based; remark: listed apart in the source
[9] = molecular target: cGMP-inhibited 3',5'-cyclic phosphodiesterase 3A (Homo sapiens, UniProt Q14432); assay type: functional
Chain of cGMP-inhibited 3',5'-cyclic phosphodiesterase 3A (Q14432 whole entry): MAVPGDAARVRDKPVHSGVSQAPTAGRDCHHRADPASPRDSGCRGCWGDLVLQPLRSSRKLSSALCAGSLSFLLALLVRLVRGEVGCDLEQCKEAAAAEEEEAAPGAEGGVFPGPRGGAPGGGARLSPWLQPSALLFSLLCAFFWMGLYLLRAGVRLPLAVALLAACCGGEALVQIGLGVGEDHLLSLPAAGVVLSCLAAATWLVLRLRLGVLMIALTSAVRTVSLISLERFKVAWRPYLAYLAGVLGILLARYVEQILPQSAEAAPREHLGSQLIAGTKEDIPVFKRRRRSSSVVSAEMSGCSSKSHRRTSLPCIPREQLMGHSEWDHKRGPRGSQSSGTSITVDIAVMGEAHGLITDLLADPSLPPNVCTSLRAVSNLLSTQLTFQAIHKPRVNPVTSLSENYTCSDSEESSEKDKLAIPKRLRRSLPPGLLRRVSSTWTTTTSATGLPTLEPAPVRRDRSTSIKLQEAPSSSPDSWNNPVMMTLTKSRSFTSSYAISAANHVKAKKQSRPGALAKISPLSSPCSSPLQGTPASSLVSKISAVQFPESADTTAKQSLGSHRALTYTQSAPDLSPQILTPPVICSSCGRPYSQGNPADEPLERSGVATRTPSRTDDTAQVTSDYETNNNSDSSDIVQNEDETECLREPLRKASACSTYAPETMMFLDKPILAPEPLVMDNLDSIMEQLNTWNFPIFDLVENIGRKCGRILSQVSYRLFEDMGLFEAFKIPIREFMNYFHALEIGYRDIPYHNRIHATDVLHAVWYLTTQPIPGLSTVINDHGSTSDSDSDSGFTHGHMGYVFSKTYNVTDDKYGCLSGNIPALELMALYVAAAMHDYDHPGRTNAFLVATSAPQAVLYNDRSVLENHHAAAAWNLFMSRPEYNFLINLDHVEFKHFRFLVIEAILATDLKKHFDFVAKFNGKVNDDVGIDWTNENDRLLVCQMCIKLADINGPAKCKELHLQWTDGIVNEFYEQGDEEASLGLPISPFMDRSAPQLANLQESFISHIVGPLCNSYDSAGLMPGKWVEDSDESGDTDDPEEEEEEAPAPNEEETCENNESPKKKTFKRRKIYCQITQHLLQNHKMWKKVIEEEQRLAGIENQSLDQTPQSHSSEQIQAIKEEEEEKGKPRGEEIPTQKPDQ

[10] = molecular target: T6, Prostaglandin G/H synthase 1; assay type: functional; remark: listed apart in the source
Note: assay procedure not described here.

Structure (SMILES)	AC50 [1] [µM]	AC50 (Adenosine receptor A3) [µM]	AC50 (Prothrombin) [µM]	AC50 (Acetylcholinesterase) [µM]	AC50 [2] [µM]	AC50 [3] [µM]	AC50 (D(3) dopamine receptor) [µM]	AC50 [4] [µM]	AC50 (Estrogen receptor) [µM]	AC50 (Mu-type opioid receptor) [µM]	AC50 (Thromboxane A2 receptor [5]) [µM]	AC50 [6] [µM]	AC50 [7] [µM]	AC50 (Thromboxane A2 receptor [8]) [µM]	AC50 [9] [µM]	AC50 [10] [µM]
CC(C)Cc1ccc(C(C)C(=O)NO)cc1 (stereo not given) [IBUPROXAM]	> 30	> 30	> 30	> 30	> 30	> 30	> 30	> 30	> 30	> 30	> 30	> 30	> 30	> 30	> 30	
CC(=O)OC(C)C[N+](C)(C)C (stereo not given) [METHACHOLINE]	> 30	> 30	> 30	> 30	> 30	> 30	> 30	> 30	> 30	> 30	0.824	> 30	> 30		> 30	> 30
Cn1cc[nH]c1=S [METHIMAZOLE]	> 30	> 30	> 30	> 30	> 30	> 30	> 30		> 30	> 30	> 30	> 30	0.541	> 30	> 30	> 30
O=[N+]([O-])c1cncn1CCN1CCOCC1 [NIMORAZOLE]	> 30	> 30	> 30	> 30	> 30	> 30	> 30		> 30	> 30	> 30	> 30	> 30	> 30	> 30	> 30
CCC1C(C)=NN=C(c2ccc(OC)c(OC)c2)c2cc(OC)c(OC)cc21 (stereo not given) [TOFISOPAM]	> 30	> 30	> 30	> 30	> 30	> 30		> 30	> 30	> 30	> 30	> 30	> 30	> 30	6.62	> 30
COc1cc2c(cc1OC)[C@H]1C[C@@H](OC(=O)[C@@H](N)C(C)C)[C@H](CC(C)C)CN1CC2 [VALBENAZINE]	> 30	> 30	> 30	> 30	> 30	> 30	> 30		> 30	21.6	> 30	> 30	5.44	13.9	> 30	24.1
